Laboratory results reported in patent publication US11034991B2, “Methods to determine KDM1A target engagement and chemoprobes useful therefor” (Oryzon Genomics S.A., priority 2016, dated 2021).
Entries after “also recorded” stand apart in the source; their conditions may differ. Counter-ions that a name gives are not always drawn.

How the values were obtained:
[1] = target: Human recombinant MAO-B (Homo sapiens (Human), UniProt P27338); test: MAO inhibition (kynuramine fluorescence assay), MAO-B; assay type: biochemical; settings: kynuramine at KM, 1 h at 37° C.
Protocol: (§1) The target selectivity of the chemoprobes for binding FAD in KDM1A relative to other FAD containing enzymes is evaluated by testing the chemoprobes in different biochemical assays to determine its MAO-A, MAO-B, IL4I1 and SMOX inhibitory activity in vitro. All IC50 values were calculated using Graph Prism Software.
(§2) Human recombinant MAO-A and MAO-B were purchased from Sigma Aldrich (#M7316 and #M7441 respectively). Enzymatic activities and inhibition rate were analyzed in a fluorescence based assay using kynuramine (Sigma Aldrich #K3250) as a substrate. Clorgiline and Deprenyl (Sigma Aldrich #M3778 and #M003) were used as controls for specific inhibition of MAO-A and MAO-B respectively. Compounds were pre-incubated with protein for 15 min on ice in 100 mM Hepes pH 7.5. The enzymatic reaction was initiated by the addition of specific KM Kynuramine and incubated 1 h at 37° C. The reaction was stopped by adding NaOH 2N (v/v). The conversion of kynuramine to 4-hydroxyquinoline was monitored by fluorescence (λex=320 nm, λem=360 nm) using a microplate reader.

[2] = target: Mouse recombinant SMOX enzyme (Mus musculus (Mouse), UniProt Q99K82); test: SMOX inhibition (spermine oxidation, HRP/Amplex red); assay type: biochemical; settings: KM spermine, 10 minutes; read-out: mSMOX IC50
Protocol: as §1
Mouse recombinant SMOX enzyme was provided by Professor Paolo Mariottini (Rome University). The biochemical activity was measured by its ability to oxidize spermine in a horseradish peroxidase coupled assay using Amplex red as a substrate. The assay buffer for mSMOX reaction was 100 mM Sodium Phosphate pH 8.0. The inhibition by tested compounds was monitored during 10 minutes in the presence of KM spermine.

[3] = target: Human recombinant MAO-A (Homo sapiens (Human), UniProt P21397); test: MAO inhibition (kynuramine fluorescence assay), MAO-A; assay type: biochemical; settings: kynuramine at KM, 1 h at 37° C.
Protocol: as §1, §2

[4] = target: hIL-4I1 (Homo sapiens (Human), UniProt Q96RQ9); test: IL-4I1 inhibition (phenylalanine oxidation, HRP/Amplex red); assay type: biochemical
Protocol: as §1
Human recombinant IL-411 was purchased from RD Systems (#5684-A0-020). The biochemical activity was measured by its ability to oxidize phenylalanine and produce H2O2 in a horseradish-peroxidase coupled assay using Amplex red as substrate.

[5] = target: KDM1A in MV(4;11) cells (Homo sapiens (Human), UniProt O60341); settings: 24 h of treatment
Protocol: Total protein extracts were quantified and 1 ug of total protein was used to perform the target engagement analysis as described above, using the luminescent substrate.

[6] = target: KDM1A in THP-1 cells (Homo sapiens (Human), UniProt O60341); test: KDM1A target engagement in cells (chemoprobe luminescent ELISA), THP-1; settings: THP-1 cells treated for 24 h, 0.25-25 nM
[7] = target: human rKDM1A (Homo sapiens (Human), UniProt O60341); test: AlphaLISA detection of free KDM1A; assay type: binding; settings: pretreatment of the enzyme at 5 uM; chemoprobe Example 1.6 100 nM
Protocol: The AlphaLISA assay detects the proximity of a first detection agent containing […] latex donor beads containing phthalocyanine that release singlet oxygen after irradiation at […] to a second detection agent containing similar sized acceptor beads containing Europium that emit a narrow peak of light at […] after absorption of singlet oxygen. The AlphaPlex assay allows detection of multiple analytes in the same assay volume and works similarly, but two acceptor beads are used (second and third detection agents) containing respectively Terbium or Samarium and emit light at 545 nM or 645 nM after absorption. Effective singlet oxygen transfer occurs when donor and acceptor beads are separated by a distance of less than 200 nm.
For example, anti-KDM1A antibody (mAb-844) was conjugated to AlphaLISA acceptor beads (Perkin Elmer #6772001) to generate a first detection agent, and anti-KDM1A antibody (mAb-825) was conjugated to AlphaLISA donor beads (Perkin Elmer #6762013) to generate a second detection agent that together form a detection system that can be used to determine total KDM1A levels. […]

[8] = target: T1, KDM1A in rat PBMCs (Rattus norvegicus (Rat), UniProt A0A8I6G2K8); test: Dynamics of KDM1A target engagement in rat pooled PBMCs; assay type: in vivo
Protocol: Obtention of proteins extracts, assay protocol and calculation of TE as described in example 8.1, 7.1 and 7.2 respectively.
PBMCs were obtained pre-dose (before starting the drug administration) and 2, 6, 24 h after the single dose administration, or pre-dose (i.e. 0 h) and 2, 6, 24, 48 and 72 h after the last drug administration in the multiple dose administration. Total and free KDM1A protein levels in PBMCs were assessed using 0.5 ug of total protein extracts. […] The KDM1A target engagement was calculated as described previously (see section 7.2)), where RX corresponds to each time-point analyzed and RREF is the sample corresponding to the pre-dose of rat PBMC.

[9] = target: KDM1A from THP-1 cells (Homo sapiens (Human), UniProt O60341); settings: pretreatment with 25 nM; chemoprobe example 1.1
Protocol: (§6) Tubes were incubated for 5 min on ice and briefly sonicated to achieve lysis. The resulting extracts were centrifuged 10 min at 14.000×g at 4° C. Supernatants were collected and quantified by Bradford assay (BIO-RAD; #500-0006) following manufacturer's instructions.
(§7) 350 μg of protein extracts (containing the chemoprobe) was then added and incubated for 30 min at room temperature (RT) using gentle rotation. The chemoprobe-KDM1A complex bound to the streptavidin beads was separated using a magnet and washed 4 times in PBS. After the last wash, samples were resuspended in 25 μL of 3×SDS Sample Buffer and analyzed by western blot. Samples were separated on a 10% Bis-Tris NuPAGE® Novex® Precast gel (Invitrogen; #P0301BOX) following manufacturer's instructions. Gels were transferred onto nitrocellulose membrane (GE Healthcare; #RPN303D) for immunodetection by semi-dry transfer. N-specific binding sites were blocked by incubating membranes in blocking buffer (5% non-fat dry milk in PBS-Tween 0.1%) at RT for 1 h. […] Signal was detected by enhanced chemiluminescence (ECL, Amersham, GE Healthcare; #W9643350) using a GeneGnome HR System (Syngene).

[10] = target: KDM1A in LNCap cells (Homo sapiens (Human), UniProt O60341); test: KDM1A target engagement in cells (chemoprobe luminescent ELISA), LNCap; assay type: cell-based; settings: LNCap cells treated for 24 h at 0.1, 1 and 10 nM
Protocol: Coating was performed at 4° C.

[11] = target: KDM1A in rat lung (Rattus norvegicus (Rat), UniProt A0A8I6G2K8); test: In vivo KDM1A target engagement, ex vivo rat lung; settings: pooled rat lung, oral gavage 4 consecutive days, 1, 3, 10 and 30 ug/kg/day
Protocol: (§3) 8.1. Samples preparation and obtention of protein extracts from cells was performed as described in example 5. Frozen tissues were homogenized with a mortar and pestle chilled on dry ice. Powdered samples were resuspended in lysis buffer and forced through a 18 gauge blunt syringe needle to lyse the cells, proteins were then extracted as described above for cell pellets (example 5.2). Isolation of PBMCs from peripheral blood was also as described in example 5.2.
(§4) 8.2. Assay Protocol and Calculation of TE: same as Described in Example 7.1 and 7.2.
(§5) Four different doses were used (1, 3, 10 and 30 ug/kg/day). The KDM1A target engagement was calculated as described previously (see example 7), where RX corresponds to each condition analyzed and RREF is the sample corresponding to vehicle (non treated) rat PBMCs.

[12] = target: KDM1A from MV(4;11) cells (Homo sapiens (Human), UniProt O60341); settings: MV(4;11) cells pre-treated with 25 nM; chemoprobes Examples 1.4 and 1.5
Protocol: as §6, §7

[13] = target: T1, KDM1A in rat PBMCs; test: In vivo KDM1A target engagement, ex vivo rat PBMCs; settings: pooled rat PBMC, oral gavage 4 consecutive days, 1, 3, 10 and 30 ug/kg/day, two hours after last administration
Protocol: Peripheral blood mononuclear cells (PBMCs) from rat were isolated from peripheral fresh blood collected in anticoagulant tubes for blood (K2- or K3-EDTA as the preferred anticoagulant tubes) and diluted with an equal volume of PBS, using Ficoll-Paque PLUS reagent (GE Healthcare; #17-1440-02) or Leucosep Tubes (Greiner bio-one; #227288) according to manufacturer's instructions. Cells were stained with tryptan blue and cell number and viability were determined using a Neubauer Chamber in an optical microscope. Pellets of 1·10^6 PBMCs were preserved at −80° C. The same procedure can be used for isolation of PBMCs from other resources such as human or mouse blood. In the case of human samples, preferably Leucosep procedure is used, whereas for mouse PBMCs, Ficoll procedure is preferred.
8.1. Samples preparation and obtention of protein extracts from cells was performed as described in example 5. Frozen tissues were homogenized with a mortar and pestle chilled on dry ice. […]
as §5

[14] = target: human recombinant KDM1A enzyme (Homo sapiens (Human), UniProt O60341); settings: read-out: KDM1A IC50 (biochemical assay)
Protocol: The ability of the chemoprobes to inhibit KDM1A was tested in vitro using the assay described below.
KDM1A inhibition assay: a multistep enzymatic reaction in which the enzyme first produces H2O2 during the demethylation of lysine 4 in a 21 AA H3K4me2 N-terminal peptide. […] After 30 min of incubation at 37° C. Amplex Red reagent and the horseradish peroxidase (HRP) solution were added according to the recommendations of the supplier (Invitrogen) and left to incubate for 5 min at room temperature in the dark. Conversion of the Amplex Red reagent to resorufin, was monitored by fluorescence (λex=540 nm, λem=590 nm) using a microplate reader (Infinite F200 Tecan). Signals were corrected for background and the IC50 value was calculated with GraphPad Prism Software.

[15] = test system: KDM1A in brain; test: In vivo KDM1A target engagement, brain of SAMP8 mice
Protocol: as §3, §4
The methods of the invention have also been used to determine KDM1A target engagement in SAMP8 mice (a non-transgenic model for neurodegeneration reminiscent of Alzheimer's disease) which have been treated with the KDM1A inhibitor designated as Compound C. Compound C is the compound with chemical name (−)5-((((trans)-2-(4-(benzyloxy)phenyl)cyclopropyl)amino)methyl)-1,3,4-oxadiazol-2-amine, which is described in WO2012/013728. […] Female SAMP8 mice were treated with Compound C starting at 5 months of age and during 2 months. Mice were randomly distributed in three groups, receiving vehicle or Compound C at 0.11 mg/kg/day or 0.32 mg/kg/day, respectively. […] The dose was calculated according to the animal water consumption average per cage and adjusted weekly. […]

[16] = target: KDM1A in PBMCs (Homo sapiens (Human), UniProt O60341); test: KDM1A target engagement in PBMCs of healthy volunteers (Phase I clinical study); assay type: in vivo; settings: single oral dose of 1.5 mg, 12 and 72 h post-administration, 6 volunteers
Protocol: A Phase I clinical study has been performed to characterize the safety, tolerability, pharmacokinetics and pharmacodynamics of Compound C in healthy volunteers. The first stage of this clinical study is a randomized, double-blind, dose escalation study, in which the KDM1A inhibitor was administered as a single oral dose in capsules. Up to five different dose levels were tested in cohorts of 8 volunteers, randomized to receive either Compound C (n=6) or placebo (n=2). As part of the pharmacodynamic evaluations in this clinical study, KDM1A target engagement (TE) was assessed at pre-treatment, and 12 and 72 h after drug administration. Briefly, blood samples (10 mL) were collected in EDTA-K2 tubes from all the treated volunteers (active drug and placebo, n=8 per dose level) and PBMCs pellets obtained by density gradient centrifugation in Leucosep™ tubes and stored at −90° C. until analysis. Only PBMC samples meeting pre-established sample quality control criteria are used for the TE analysis. In particular, samples with signs of hemolysis and/or with traces of red cells are discarded.
KDM1A TE values obtained for each volunteer in the cohort of volunteers corresponding to the single dose of 1.5 mg of Compound C are shown in FIG. 11.

Sequence of hIL-4I1 (Q96RQ9 22-567): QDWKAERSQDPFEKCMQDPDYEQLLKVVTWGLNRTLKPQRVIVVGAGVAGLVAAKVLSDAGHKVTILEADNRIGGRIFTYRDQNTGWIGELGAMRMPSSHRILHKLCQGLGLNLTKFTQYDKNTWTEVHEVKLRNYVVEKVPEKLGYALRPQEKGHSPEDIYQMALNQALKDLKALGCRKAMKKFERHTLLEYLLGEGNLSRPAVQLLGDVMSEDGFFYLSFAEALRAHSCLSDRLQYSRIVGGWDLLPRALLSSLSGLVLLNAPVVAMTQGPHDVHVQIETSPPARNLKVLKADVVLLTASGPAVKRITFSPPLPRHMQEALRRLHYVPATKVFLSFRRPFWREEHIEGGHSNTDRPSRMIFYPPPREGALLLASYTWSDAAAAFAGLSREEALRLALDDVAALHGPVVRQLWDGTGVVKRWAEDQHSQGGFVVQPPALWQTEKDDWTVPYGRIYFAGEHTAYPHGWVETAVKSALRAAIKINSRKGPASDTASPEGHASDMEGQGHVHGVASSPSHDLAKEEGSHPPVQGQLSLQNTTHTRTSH
Sequence of Human recombinant MAO-A (P21397 whole entry): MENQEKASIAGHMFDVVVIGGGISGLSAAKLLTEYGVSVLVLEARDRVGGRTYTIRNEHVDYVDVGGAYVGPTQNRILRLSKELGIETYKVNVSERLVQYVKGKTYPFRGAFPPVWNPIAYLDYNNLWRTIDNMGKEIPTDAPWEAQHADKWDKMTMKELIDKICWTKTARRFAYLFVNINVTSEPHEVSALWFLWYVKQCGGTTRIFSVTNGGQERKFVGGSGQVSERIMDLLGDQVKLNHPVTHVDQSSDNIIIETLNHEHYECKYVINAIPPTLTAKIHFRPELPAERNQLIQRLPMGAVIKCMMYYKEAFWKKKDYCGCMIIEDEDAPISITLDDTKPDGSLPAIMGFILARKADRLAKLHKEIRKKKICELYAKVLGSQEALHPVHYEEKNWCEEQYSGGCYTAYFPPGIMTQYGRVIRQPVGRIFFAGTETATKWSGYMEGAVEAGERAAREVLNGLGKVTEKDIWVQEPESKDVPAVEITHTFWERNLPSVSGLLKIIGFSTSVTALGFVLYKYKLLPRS
Sequence of Mouse recombinant SMOX enzyme (Q99K82 whole entry): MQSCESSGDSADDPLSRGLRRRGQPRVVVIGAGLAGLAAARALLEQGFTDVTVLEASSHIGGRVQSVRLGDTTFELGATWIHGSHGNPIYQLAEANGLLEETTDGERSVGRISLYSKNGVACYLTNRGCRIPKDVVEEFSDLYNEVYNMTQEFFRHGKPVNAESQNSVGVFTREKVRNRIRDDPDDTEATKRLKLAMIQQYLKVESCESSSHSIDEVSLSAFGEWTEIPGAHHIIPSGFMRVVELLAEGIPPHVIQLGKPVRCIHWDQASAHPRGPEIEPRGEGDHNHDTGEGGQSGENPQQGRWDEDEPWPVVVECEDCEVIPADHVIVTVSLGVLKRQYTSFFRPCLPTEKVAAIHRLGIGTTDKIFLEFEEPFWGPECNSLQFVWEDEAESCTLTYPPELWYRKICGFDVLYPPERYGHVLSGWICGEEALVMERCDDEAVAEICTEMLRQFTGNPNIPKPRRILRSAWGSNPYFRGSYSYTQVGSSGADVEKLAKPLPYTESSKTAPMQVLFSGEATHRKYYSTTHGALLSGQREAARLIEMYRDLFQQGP
Sequence of Human recombinant MAO-B (P27338 whole entry): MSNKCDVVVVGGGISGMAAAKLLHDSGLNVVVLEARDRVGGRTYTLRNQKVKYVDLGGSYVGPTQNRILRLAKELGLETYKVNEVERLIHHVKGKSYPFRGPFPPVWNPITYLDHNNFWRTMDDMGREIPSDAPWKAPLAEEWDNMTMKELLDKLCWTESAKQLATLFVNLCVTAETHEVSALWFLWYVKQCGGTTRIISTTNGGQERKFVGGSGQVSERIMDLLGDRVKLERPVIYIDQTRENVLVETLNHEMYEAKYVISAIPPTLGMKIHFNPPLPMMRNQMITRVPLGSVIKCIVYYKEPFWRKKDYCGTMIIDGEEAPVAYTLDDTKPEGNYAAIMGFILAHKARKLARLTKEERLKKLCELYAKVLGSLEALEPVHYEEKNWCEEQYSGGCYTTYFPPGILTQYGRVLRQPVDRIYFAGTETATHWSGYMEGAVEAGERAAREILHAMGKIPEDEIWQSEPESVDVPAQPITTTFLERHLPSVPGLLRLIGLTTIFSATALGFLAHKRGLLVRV

N[C@H]1CC[C@H](N[C@@H]2C[C@H]2c2ccc(-c3cccc(CCC(=O)NCCOCCOCCOCCOCCOCCOCCOCCOCCOCCOCCOCCNC(=O)CCCC[C@@H]4SC[C@@H]5NC(=O)N[C@@H]54)c3)cc2)CC1 [Example 1.6, N-(39-(4′-((1S,2R)-2-(((trans)-4-aminocyclohexyl)amino)cyclopropyl)-[1,1′-biphenyl]-3-yl)-37-oxo-3,6,9,12,15,18,21,24,27,30,33-undecaoxa-36-azanonatriacontyl)-5-((3aS,4S,6aR)-2-oxohexahydro-1H-thieno[3,4-d]imidazol-4-yl)pentanamide dihydrochloride]
IC50 [1]: > 100 µM
IC50 [2]: 13 µM
IC50 [3]: > 100 µM
IC50 ([4]; KM phenylalanine, 30 minutes): > 100 µM
inhibition at 100 µM ([4]; at 100 uM): 31%

N[C@H]1CC[C@H](N[C@@H]2C[C@H]2c2ccccc2)CC1 [ORY-1001, (trans)-N1-((1R,2S)-2-phenylcyclopropyl)cyclohexane-1,4-diamine]
% of KDM1A target engagement [5]: dose-responsive cellular target engagement
% of Target engagement [6]: dose-responsive cellular target engagement
free KDM1A signal (AlphaLISA) [7]: blocked
target engagement after multiple administrations versus single administration ([8]; at the same dose level): higher than single administration
percentage of KDM1A target engagement over time ([8]; pooled rat PBMCs, p.o. 2.5 and 15 ug/kg/day, single dose or 5 consecutive days): clear time- and dose-response in KDM1A target engagement
percentage of KDM1A target engagement after the last dose in absence of further treatment ([8]; up to 72 h after the last administration): gradually decreases
effect of pretreatment on pull-down of KDM1A by chemoprobe [9]: completely prevented pull-down of KDM1A
KDM1A target engagement [10]: clear KDM1A target engagement
KDM1A target engagement (in %) [11]: clear dose-response of KDM1A target engagement
effect of pre-treatment on pull-down of KDM1A by chemoprobes [12]: completely prevented pull-down of KDM1A
KDM1A target engagement (in %) [13]: clear dose-response of KDM1A target engagement

Nc1nnc(CN[C@@H]2C[C@H]2c2ccc(OCc3ccccc3)cc2)o1 [Compound C, (−)5-((((trans)-2-(4-(benzyloxy)phenyl)cyclopropyl)amino)methyl)-1,3,4-oxadiazol-2-amine]
IC50 [14]: 0.101 µM
mean % KDM1A target engagement ([15]; brain of female SAMP8 mice, 0.11 or 0.32 mg/kg/day in drinking water, 2 months): clear dose-response of KDM1A target engagement
brain penetration ([15]; mouse, in vivo): enters the brain; also recorded: cross the blood-brain barrier
KDM1A TE [16]: Clear KDM1A target engagement
